Assays:
blackgrass [1] = experiment: Test C preemergence; assay type: in vivo, Alopecurus myosuroides; conditions: preemergence, 0 to 100 scale (0 no effect, 100 complete control)
Summary of the method: (§1)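 Soil-applied (pre) and foliar (post, 1–2 leaf, 2–10 cm) sprays; surfactant-containing non-phytotoxic solvent vehicle; loam/sand substrate. Readout: visual % control at 10 d, greenhouse, versus untreated.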

kochia [2] = experiment: Test C postemergence; assay type: in vivo, Bassia scoparia; conditions: 10 days, 0 to 100 scale (0 no effect, 100 complete control)
Summary of the method: as §1

horseweed = experiment: Test C postemergence; assay type: in vivo, Erigeron canadensis; conditions: 10 days, 0 to 100 scale (0 no effect, 100 complete control)
Summary of the method: as §1

ryegrass, Italian [3] = experiment: Test C postemergence; assay type: in vivo, Lolium multiflorum; conditions: 10 days, 0 to 100 scale (0 no effect, 100 complete control)
Summary of the method: as §1

sedge, umbrella = experiment: Test D flooded paddy test; assay type: in vivo, Cyperus difformis; conditions: 250 g ai/ha, applied to paddy water, visual rating after 13 to 14 days, scale 0 to 100 (0 no effect, 100 complete control)
Summary of the method: (§2)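 Post-flood water application at the 2-leaf stage; 3 cm flood depth kept constant; visual control rating 0–100 after 13–14 days greenhouse growth.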

green foxtail [4] = experiment: Test C postemergence; assay type: in vivo, Setaria viridis; conditions: 10 days, 0 to 100 scale (0 no effect, 100 complete control)
Summary of the method: as §1

ryegrass, Italian [5] = experiment: Test C preemergence; assay type: in vivo, Lolium multiflorum; conditions: preemergence, 0 to 100 scale (0 no effect, 100 complete control)
Summary of the method: as §1

barnyardgrass [6] = experiment: Test C preemergence; assay type: in vivo, Echinochloa crusgalli; conditions: preemergence, 0 to 100 scale (0 no effect, 100 complete control)
Summary of the method: as §1

soybean [7] = experiment: Test C postemergence; assay type: in vivo, Glycine max; conditions: 10 days, 0 to 100 scale (0 no effect, 100 complete control)
Summary of the method: as §1

wheat [8] = experiment: Test C postemergence; assay type: in vivo, Triticum aestivum; conditions: 10 days, 0 to 100 scale (0 no effect, 100 complete control)
Summary of the method: as §1

barnyardgrass [9] = experiment: Test D flooded paddy test; assay type: in vivo, Echinochloa crus-galli; conditions: 250 g ai/ha, applied to paddy water, visual rating after 13 to 14 days, scale 0 to 100 (0 no effect, 100 complete control)
Summary of the method: as §2

corn [10] = experiment: Test C preemergence; assay type: in vivo, Zea mays; conditions: preemergence, 0 to 100 scale (0 no effect, 100 complete control)
Summary of the method: as §1

corn [11] = experiment: Test C postemergence; assay type: in vivo, Zea mays; conditions: 10 days, 0 to 100 scale (0 no effect, 100 complete control)
Summary of the method: as §1

ducksalad = experiment: Test D flooded paddy test; assay type: in vivo, Heteranthera limosa; conditions: 250 g ai/ha, applied to paddy water, visual rating after 13 to 14 days, scale 0 to 100 (0 no effect, 100 complete control)
Summary of the method: as §2

kochia [12] = experiment: Test C preemergence; assay type: in vivo, Bassia scoparia; conditions: preemergence, 0 to 100 scale (0 no effect, 100 complete control)
Summary of the method: as §1

soybean [13] = experiment: Test C preemergence; assay type: in vivo, Glycine max; conditions: preemergence, 0 to 100 scale (0 no effect, 100 complete control)
Summary of the method: as §1

pigweed, palmer [14] = experiment: Test C preemergence; assay type: in vivo, Amaranthus palmeri; conditions: preemergence, 0 to 100 scale (0 no effect, 100 complete control)
Summary of the method: as §1

green foxtail [15] = experiment: Test C preemergence; assay type: in vivo, Setaria viridis; conditions: preemergence, 0 to 100 scale (0 no effect, 100 complete control)
Summary of the method: as §1

galium = experiment: Test C postemergence; assay type: in vivo, Galium aparine; conditions: 10 days, 0 to 100 scale (0 no effect, 100 complete control)
Summary of the method: as §1

rice = experiment: Test D flooded paddy test; assay type: in vivo, Oryza sativa; conditions: 250 g ai/ha, applied to paddy water, visual rating after 13 to 14 days, scale 0 to 100 (0 no effect, 100 complete control)
Summary of the method: as §2

pigweed, palmer [16] = experiment: Test C postemergence; assay type: in vivo, Amaranthus palmeri; conditions: 10 days, 0 to 100 scale (0 no effect, 100 complete control)
Summary of the method: as §1

ragweed [17] = experiment: Test C postemergence; assay type: in vivo, Ambrosia artemisiifolia; conditions: 10 days, 0 to 100 scale (0 no effect, 100 complete control)
Summary of the method: as §1

oat, wild [18] = experiment: Test C postemergence; assay type: in vivo, Avena fatua; conditions: 10 days, 0 to 100 scale (0 no effect, 100 complete control)
Summary of the method: as §1

blackgrass [19] = experiment: Test C postemergence; assay type: in vivo, Alopecurus myosuroides; conditions: 10 days, 0 to 100 scale (0 no effect, 100 complete control)
Summary of the method: as §1

ragweed [20] = experiment: Test C preemergence; assay type: in vivo, Ambrosia artemisiifolia; conditions: preemergence, 0 to 100 scale (0 no effect, 100 complete control)
Summary of the method: as §1

oat, wild [21] = experiment: Test C preemergence; assay type: in vivo, Avena fatua; conditions: preemergence, 0 to 100 scale (0 no effect, 100 complete control)
Summary of the method: as §1

wheat [22] = experiment: Test C preemergence; assay type: in vivo, Triticum aestivum; conditions: preemergence, 0 to 100 scale (0 no effect, 100 complete control)
Summary of the method: as §1

barnyardgrass [23] = experiment: Test C postemergence; assay type: in vivo, Echinochloa crusgalli; conditions: 10 days, 0 to 100 scale (0 no effect, 100 complete control)
Summary of the method: as §1

## CC(C)Oc1ncn(-c2cccc(C(=O)N3C[C@H](C)Oc4c(Cl)cccc43)c2)n1 [Compound 312]
Blackgrass [1]; 500 g ai/ha
  Blackgrass plant response rating: 80
Blackgrass [1]; Test C, 125 g ai/ha
  Blackgrass plant response rating: 50
Kochia [2]; 500 g ai/ha, postemergence
  Plant response rating, Kochia: 80
Kochia [2]; Postemergence, 125 g ai/ha
  Plant response rating, Kochia: 20
horseweed; 500 g ai/ha, postemergence
  Plant response rating, Horseweed: 0
horseweed; Postemergence, 125 g ai/ha
  Plant response rating, Horseweed: 0
ryegrass, Italian [3]; 500 g ai/ha, postemergence
  Plant response rating, Ryegrass, Italian: 30
ryegrass, Italian [3]; Postemergence, 125 g ai/ha
  Plant response rating, Ryegrass, Italian: 30
sedge, umbrella
  Plant response rating, Sedge, Umbrella (Flood): 0
Green foxtail [4]; 500 g ai/ha, postemergence
  Plant response rating, Foxtail, Green: 20
Green foxtail [4]; Postemergence, 125 g ai/ha
  Plant response rating, Foxtail, Green: 0
ryegrass, Italian [5]; 500 g ai/ha
  Ryegrass, Italian plant response rating: 80
ryegrass, Italian [5]; Test C, 125 g ai/ha
  Ryegrass, Italian plant response rating: 70
Barnyardgrass [6]; 500 g ai/ha
  Barnyardgrass plant response rating: 40
Barnyardgrass [6]; Test C, 125 g ai/ha
  Barnyardgrass plant response rating: 0
Soybean [7]; 500 g ai/ha, postemergence
  Plant response rating, Soybean: 100
Soybean [7]; Postemergence, 125 g ai/ha
  Plant response rating, Soybean: 80
Wheat [8]; 500 g ai/ha, postemergence
  Plant response rating, Wheat: 10
Wheat [8]; Postemergence, 125 g ai/ha
  Plant response rating, Wheat: 10
Barnyardgrass [9]
  Plant response rating, Barnyardgrass (Flood): 0
Corn [10]; 500 g ai/ha
  Corn plant response rating: 10
Corn [10]; Test C, 125 g ai/ha
  Corn plant response rating: 0
Corn [11]; 500 g ai/ha, postemergence
  Plant response rating, Corn: 10
Corn [11]; Postemergence, 125 g ai/ha
  Plant response rating, Corn: 10
ducksalad
  Plant response rating, Ducksalad (Flood): 0
Kochia [12]; 500 g ai/ha
  Kochia plant response rating: 20
Kochia [12]; Test C, 125 g ai/ha
  Kochia plant response rating: 0
Soybean [13]; 500 g ai/ha
  Soybean plant response rating: 10
Soybean [13]; Test C, 125 g ai/ha
  Soybean plant response rating: 0
pigweed, palmer [14]; 500 g ai/ha
  Pigweed, Palmer plant response rating: 70
pigweed, palmer [14]; Test C, 125 g ai/ha
  Pigweed, Palmer plant response rating: 20
Green foxtail [15]; 500 g ai/ha
  Foxtail, Green plant response rating: 90
Green foxtail [15]; Test C, 125 g ai/ha
  Foxtail, Green plant response rating: 80
galium; 500 g ai/ha, postemergence
  Plant response rating, Galium: 80
galium; Postemergence, 125 g ai/ha
  Plant response rating, Galium: 60
rice
  Plant response rating, Rice (Flood): 0
pigweed, palmer [16]; 500 g ai/ha, postemergence
  Plant response rating, Pigweed, Palmer: 50
pigweed, palmer [16]; Postemergence, 125 g ai/ha
  Plant response rating, Pigweed, Palmer: 10
Ragweed [17]; 500 g ai/ha, postemergence
  Plant response rating, Ragweed: 40
Ragweed [17]; Postemergence, 125 g ai/ha
  Plant response rating, Ragweed: 0
oat, wild [18]; 500 g ai/ha, postemergence
  Plant response rating, Oat, Wild: 0
oat, wild [18]; Postemergence, 125 g ai/ha
  Plant response rating, Oat, Wild: 0
Blackgrass [19]; 500 g ai/ha, postemergence
  Plant response rating, Blackgrass: 40
Blackgrass [19]; Postemergence, 125 g ai/ha
  Plant response rating, Blackgrass: 0
Ragweed [20]; 500 g ai/ha
  Ragweed plant response rating: 0
Ragweed [20]; Test C, 125 g ai/ha
  Ragweed plant response rating: 0
oat, wild [21]; 500 g ai/ha
  Oat, Wild plant response rating: 70
oat, wild [21]; Test C, 125 g ai/ha
  Oat, Wild plant response rating: 0
Wheat [22]; 500 g ai/ha
  Wheat plant response rating: 10
Wheat [22]; Test C, 125 g ai/ha
  Wheat plant response rating: 0
Barnyardgrass [23]; 500 g ai/ha, postemergence
  Plant response rating, Barnyardgrass: 10
Barnyardgrass [23]; Postemergence, 125 g ai/ha
  Plant response rating, Barnyardgrass: 10

## COc1ncn(-c2cccc(C(=O)N3C[C@H](C)Oc4c(C)cccc43)c2)n1 [Compound 307]
Blackgrass [1]; 500 g ai/ha
  Blackgrass plant response rating: 80
Blackgrass [1]; Test C, 125 g ai/ha
  Blackgrass plant response rating: 40
Kochia [2]; 500 g ai/ha, postemergence
  Plant response rating, Kochia: 70
Kochia [2]; Postemergence, 125 g ai/ha
  Plant response rating, Kochia: 40
horseweed; 500 g ai/ha, postemergence
  Plant response rating, Horseweed: 30
horseweed; Postemergence, 125 g ai/ha
  Plant response rating, Horseweed: 20
ryegrass, Italian [3]; 500 g ai/ha, postemergence
  Plant response rating, Ryegrass, Italian: 70
ryegrass, Italian [3]; Postemergence, 125 g ai/ha
  Plant response rating, Ryegrass, Italian: 60
sedge, umbrella
  Plant response rating, Sedge, Umbrella (Flood): 0
Green foxtail [4]; 500 g ai/ha, postemergence
  Plant response rating, Foxtail, Green: 90
Green foxtail [4]; Postemergence, 125 g ai/ha
  Plant response rating, Foxtail, Green: 60
ryegrass, Italian [5]; 500 g ai/ha
  Ryegrass, Italian plant response rating: 80
ryegrass, Italian [5]; Test C, 125 g ai/ha
  Ryegrass, Italian plant response rating: 80
Barnyardgrass [6]; 500 g ai/ha
  Barnyardgrass plant response rating: 90
Barnyardgrass [6]; Test C, 125 g ai/ha
  Barnyardgrass plant response rating: 40
Soybean [7]; 500 g ai/ha, postemergence
  Plant response rating, Soybean: 100
Soybean [7]; Postemergence, 125 g ai/ha
  Plant response rating, Soybean: 100
Wheat [8]; 500 g ai/ha, postemergence
  Plant response rating, Wheat: 80
Wheat [8]; Postemergence, 125 g ai/ha
  Plant response rating, Wheat: 10
Barnyardgrass [9]
  Plant response rating, Barnyardgrass (Flood): 0
Corn [10]; 500 g ai/ha
  Corn plant response rating: 10
Corn [10]; Test C, 125 g ai/ha
  Corn plant response rating: 0
Corn [11]; 500 g ai/ha, postemergence
  Plant response rating, Corn: 50
Corn [11]; Postemergence, 125 g ai/ha
  Plant response rating, Corn: 10
ducksalad
  Plant response rating, Ducksalad (Flood): 0
Kochia [12]; 500 g ai/ha
  Kochia plant response rating: 80
Kochia [12]; Test C, 125 g ai/ha
  Kochia plant response rating: 40
Soybean [13]; 500 g ai/ha
  Soybean plant response rating: 100
Soybean [13]; Test C, 125 g ai/ha
  Soybean plant response rating: 20
pigweed, palmer [14]; 500 g ai/ha
  Pigweed, Palmer plant response rating: 100
pigweed, palmer [14]; Test C, 125 g ai/ha
  Pigweed, Palmer plant response rating: 60
Green foxtail [15]; 500 g ai/ha
  Foxtail, Green plant response rating: 100
Green foxtail [15]; Test C, 125 g ai/ha
  Foxtail, Green plant response rating: 100
galium; 500 g ai/ha, postemergence
  Plant response rating, Galium: 90
galium; Postemergence, 125 g ai/ha
  Plant response rating, Galium: 80
rice
  Plant response rating, Rice (Flood): 0
pigweed, palmer [16]; 500 g ai/ha, postemergence
  Plant response rating, Pigweed, Palmer: 50
pigweed, palmer [16]; Postemergence, 125 g ai/ha
  Plant response rating, Pigweed, Palmer: 20
Ragweed [17]; 500 g ai/ha, postemergence
  Plant response rating, Ragweed: 50
Ragweed [17]; Postemergence, 125 g ai/ha
  Plant response rating, Ragweed: 0
oat, wild [18]; 500 g ai/ha, postemergence
  Plant response rating, Oat, Wild: 80
oat, wild [18]; Postemergence, 125 g ai/ha
  Plant response rating, Oat, Wild: 20
Blackgrass [19]; 500 g ai/ha, postemergence
  Plant response rating, Blackgrass: 90
Blackgrass [19]; Postemergence, 125 g ai/ha
  Plant response rating, Blackgrass: 70
Ragweed [20]; 500 g ai/ha
  Ragweed plant response rating: 50
Ragweed [20]; Test C, 125 g ai/ha
  Ragweed plant response rating: 0
oat, wild [21]; 500 g ai/ha
  Oat, Wild plant response rating: 90
oat, wild [21]; Test C, 125 g ai/ha
  Oat, Wild plant response rating: 50
Wheat [22]; 500 g ai/ha
  Wheat plant response rating: 90
Wheat [22]; Test C, 125 g ai/ha
  Wheat plant response rating: 10
Barnyardgrass [23]; 500 g ai/ha, postemergence
  Plant response rating, Barnyardgrass: 80
Barnyardgrass [23]; Postemergence, 125 g ai/ha
  Plant response rating, Barnyardgrass: 50

From patent publication US20260262643A1, “HERBICIDAL BENZOXAZINES” (FMC CORPORATION, priority 2022, published 2026)
